US3962321A, “Enhancement of coffee flavor” (General Foods Corporation, priority 1973, dated 1976)
Entries after “also recorded” stand apart in the source; their conditions may differ.

Legend:
[1] = Expert taster flavor and aroma levels (threshold, recognition, fatty flavor) in regular or soluble coffee brew; details: about 1 to 1.5% coffee solids brew; for Recognition Level: woody note
Text: The threshold level is that quantity of flavoring producing a change in cup flavor and aroma, but a change which cannot be described as a particular flavor. The recognition level is the quantity of flavoring which can be defined as imparting a woody note to the brew. The fatty level is that point where the undesirable fatty flavor becomes apparent and detracts from the woody character of the flavoring noted at lower levels.

[2] = Taste comparison in freeze dried Maxim soluble coffee with steam generated aroma (Example XIV); details: 2 ppb
[3] = Expert panel flavor evaluation in instant Maxwell House coffee (Example XVII); details: two parts per billion; 1.35% coffee solids
Text: An expert panel flavor evaluation was made of trans-2-nonenal, purified as in Example XVI, at a level of two parts per billion in instant Maxwell House brand soluble coffee at a 1.35% coffee solids concentration.

[4] = Flavor effect in whisky and carbonated and non-carbonated beverages
[5] = Taste comparison in instant Maxwell House coffee beverage (Example XI); details: for Taste comparison with control: 1.35% coffee solids (Example XIA)
Text: A. A taste comparison was made of instant Maxwell House brand coffee beverage containing 1.35% coffee solids enhanced with 1 ppb and 2 ppb trans-2-nonenal.
B. Example XIA was repeated employing a broader range of flavor enhancement.

[6] = Evaluation in various foodstuffs versus control (Example XXV)
Protocol: To various foodstuffs is added minute amounts of the enhancing compounds of this invention at the proportions indicated. The foodstuffs are then evaluated by comparison to a control not containing the enhancer.

[7] = General flavor characterization by flavor experts; details: 50 ppm or higher
[8] = Taste comparison in spray dried instant Maxwell House coffee containing synthetic winey, buttery flavor (Example XII); details: 2 ppb; 1.35% coffee solids brew
Text: Spray dried instant Maxwell House brand coffee containing a synthetic, winey, buttery flavor was compared to an identical sample containing an additional 2ppb trans-2-nonenal.

[9] = Flavor evaluation of retention on freeze drying of coffee extract (Example XX); type: physicochemical; details: theoretical 2 ppb
Protocol: Trans-2-nonenal (5 mg in one ml of ethanol) is added to 500 ml of distilled water and the aqueous mixture poured into 52 pounds of coffee extract of 28.2% coffee solids. The coffee-nonenal mixture is stirred and then poured into trays and frozen to form 3/8 inch thick slabs. Control slabs are also prepared from the same extract without the addition of flavors.
The slabs are freeze dried in a 50 square foot Stokes Freeze Drier under 150 microns pressure. […] Condenser temperature is maintained at -40°F.
A flavor evaluation is made by dissolving 0.65 gms of trans-2-nonenal aromatized freeze dried coffee and 2.60 gms of freeze dried control in eight bunces of hot water to give a theoretical 2 ppb concentration. Control cups are prepared by dissolving 3.25 gms of freeze dried control coffee in eight ounces of hot water and adding thereto 10 microliters of a 5 ml aqueous solution containing 0.25 mg trans-2-nonenal to give a 2 ppb concentration.

[10] = Flavor comparison in 100% Robusta spray dried soluble coffee (Example XXIV); details: 2 ppb
[11] = Flavor comparison in Sanka decaffeinated soluble coffee (Example XVIII); details: 2 ppb
[12] = Triangular odd cup flavor evaluation of retention on spray drying of coffee extract (Example XXI); type: physicochemical
Protocol: To 500 ml of distilled water is added 2.34 mg of trans-2-nonenal dissolved in 1 ml of ethanol. The aqueous mix is added to 40 pounds of coffee extract (24.5% solids) and the mixture is spray dried.
Unaromatized extract is spray dried umder equivalent conditions for use as a control. A flavor evaluation is made by dissolving 3.25 g of the aromatized coffee in eight ounces of hot water. Control cups are prepared by dissolving in each cup 3.25 g of control coffee in eight ounces of hot water and then adding thereto 10 microliters of a solution of 0.24 mg trans-2-nonenal in 5 ml of water.

[13] = Taste comparison in freeze dried Maxim soluble coffee (Example XIII)
[14] = Flavor evaluation in water and soluble coffee (Example XVI)
Text: A ten percent ethanolic solution of trans-2-nonenal (Compagnie Parento, Croton-on-Hudson, New York) was passed through a Perkin-Elmer model 900 gas chromatography unit having a 6-foot by 1/8 inch column packed with 10% diethylene glycol succinate polyester on 80/90 Anakrom ABS.

[15] = Taste comparison in instant Postum beverage (Example XXVI)
Protocol: A solution of trans-2-nonenal was prepared by dissolving 20 mg of the aldehyde in 50 ml of ethanol. One half of a milliliter of the resulting solution was then dissolved in 50 ml of spring water to yield a 0.2 mg/50 ml solution. The spring water solution was employed to prepare enhanced instant Postum by adding a sufficient amount to two grams of Postum dissolved in 200 ml of boiling spring water to give 5, 10, 20, and 30 ppb concentrations of nonenal in the hot Postum beverage. These beverages were compared with a control of 2 grams Postum dissolved in 200 ml boiling spring water by several expert tasters.

CCCCCC/C=C/C1OCCO1 [1-Octenyl-1-dioxolane, trans-1-octenyl-2-dioxolane]
Threshold Level [1]: 0.3 ppb | Undesired Fatty Flavor Becoming Apparent [1]: 1000 ppb | Recognition Level [1]: 0.8 ppb

CCCCCC/C=C\COC(C)=O [cis-2-nonenyl acetate]
Threshold Level [1]: 50 ppb | Undesired Fatty Flavor Becoming Apparent [1]: 1500 ppb | Recognition Level [1]: 150 ppb

CCCCCC/C=C/C=O [trans-2-nonenal]
Flavor comparison with control [2]: very good regular coffee flavor, the brew having improved cup flavor and lacking sourness when compared to the control | Expert panel flavor evaluation [3]: slight spent grounds flavor which improved the regular brewed character of the coffee; also recorded: desirable blending or mixing of flavor and a secondary aromatic flavor similar to that produced by the addition of steam generated aroma | Flavor in beverages [4]: low level woody note not detectable as coffee flavor which enhances the basic flavor of the beverage | Flavor Comments ([5]; 0.2 ppb in the brew): detectable subtle flavor | Flavor Comments ([5]; 0.4 ppb in the brew): subtle recognition of woodiness | Flavor Comments ([5]; 0.6 ppb in the brew): definite recognition of woodiness | Flavor Comments ([5]; 1 ppb in the brew): woody and smoother | Taste comparison with control ([5]; 1 ppb): did not give a detectable woody flavor, but did balance or blend the coffee flavor and masked the caramel and acid flavor of the control | Flavor Comments ([5]; 2 ppb in the brew): woody and groundsy | Taste comparison with control ([5]; 2 ppb): improved woody regular coffee flavor and lacked the typical caramel and acid notes of the control | Flavor Comments ([5]; 8 ppb in the brew): high woody impact | Flavor Comments ([5]; 16 ppb in the brew): tallowy flavor | Flavor Comments ([5]; 30 ppb in the brew): burnt, fatty | Flavor Comments ([5]; 40 ppb in the brew): burnt, fatty and rancid | Evaluation ([6]; Ex. 1 Cola beverage, 2 ppb): Woody | Evaluation ([6]; Ex. 2 Pear nectar, 1 ppb): Increased pear flavor | Evaluation ([6]; Ex. 3 Ginger ale, 2 ppb): Woody | Evaluation ([6]; Ex. 5 Cranberry juice, 2 ppb): Woody | Evaluation ([6]; Ex. 7 Condensed beef broth, 2 ppb): High woody | Evaluation ([6]; Ex. 8 Root Beer beverage, 1 ppb): Enhanced flavor | Evaluation ([6]; Ex. 8 Root Beer beverage, 2 ppb): High woody | Evaluation ([6]; Ex. 9 Creme Soda, 2 ppb): High woody | Evaluation ([6]; Ex. 11 Cherry gelatin dessert, 2 ppb): Woody | Evaluation ([6]; Ex. 12 Artificially sweetened cola beverage, 2 ppb): Woody | Evaluation ([6]; Ex. 13 Meat broth, 1 ppb): Higher flavor impact | Flavor when tasted at conventional flavor concentrations [7]: unpleasant, rancid fat flavor | Flavor comparison with identical sample without additive [8]: very desirable balanced flavor, having prominent winey, buttery and woody regular coffee notes | Loss of aroma during freeze drying [9]: slight loss of trans-2-nonenal aroma during freeze drying | Woody flavor of freeze dried aromatized sample relative to control ([9]; after freeze drying): about ninety | Flavor comparison with control [10]: improved woody cup flavor and aroma | Flavor comparison with control [11]: improved woody flavor and good balance of cup flavor and aroma | Loss during spray drying [12]: no significant loss of trans-2-nonenal during spray drying | Difference between aromatized and control cups ([12]; triangular, odd cup flavor evaluation): no difference between the cups | Taste comparison with control ([13]; 1 ppb): while woodiness was not evident, there was an improved balanced cup flavor and a reduction in sourness | Taste comparison with control ([13]; 2 ppb): improved woody regular coffee note. In addition, the typically winey and buttery notes of the coffee were better balanced and the typical sourness of the brew was masked | Flavor in water ([14]; 2 ppb and 20 ppb in water): regular coffee flavor characterized by experts as woody or spent grounds | Concentration at which expert tasters find undesirable flavors ([14]; not apparent to less skilled tasters): about 16 ppm | Threshold Level [1]: 0.05-0.2 ppb | Undesired Fatty Flavor Becoming Apparent [1]: 16 ppb | Recognition Level [1]: 0.4-0.6 ppb | Effect on molasses flavor and woody flavor of Postum [15]: reduced appreciably the characteristic molasses flavor of Postum and imparted a slight woody flavor | Effect on sweet, cereal taste of Postum [15]: significant reduction in the sweet, cereal taste of the beverage | Taste preference ([15]; 5 ppb and 10 ppb): preferred

CCCCCC/C=C/C(OCC)OCC [trans-2-nonene diethyl acetal]
Threshold Level [1]: 0.02 ppb | Undesired Fatty Flavor Becoming Apparent [1]: 1200 ppb | Recognition Level [1]: 0.03 ppb

CCCCCC/C=C/C(OC)OC [trans-2-nonene dimethyl Acetal, trans-2-nonene dimethyl acetal]
Threshold Level [1]: 0.03 ppb | Undesired Fatty Flavor Becoming Apparent [1]: 800 ppb | Recognition Level [1]: 0.08 ppb

CCCCCC/C=C/COC(C)=O [trans-2-nonenylacetate, Trans-2-nonenyl acetate]
Threshold Level [1]: 100 ppb | Undesired Fatty Flavor Becoming Apparent [1]: 1500 ppb | Recognition Level [1]: 200 ppb
